Reference: article PMC8952364, “Polyphenols as Inhibitors of Antibiotic Resistant Bacteria—Mechanisms Underlying Rutin Interference with Bacterial Virulence” (Pharmaceuticals, 2022)
Values after ≈ are worked out from the molar mass of the structure shown.

What was measured:
[1] = tested on: Methicillin resistant S. aureus IBRS MRSA 011; assay: Antimicrobial microdilution assay (MIC/MBC); type: cell-based, Staphylococcus aureus
Procedure: (§1) The bacterial suspension (0.5 Mc Farland) was prepared, and twenty-fold dilutions of these suspensions were mixed in a 1:10 ratio with the corresponding polyphenol dilution (0.0039–1 mg/mL). Microtiter plates were incubated at 37 °C for 24 h. The lowest concentrations without visible growth (under a binocular microscope) were defined as MICs. The bactericidal concentrations (MBCs) were determined by serial subcultivation of 2 μL of the well’s content and further incubation for 24 h at 37 °C. Streptomycin (SigmaAldrich, Darmstadt, Germany) was used as a positive control. The polyphenols were obtained from Extrasynthese, Rhone, France (rutin, isoquercitrin) and SigmaAldrich, Germany (hesperetin, hesperidin, naringenin, naringin, taxifolin, morin, chlorogenic acid, ferulic acid, p-coumaric acid, and gallic acid). The stock compounds were prepared in ethanol (30%), and adequate ethanol concentrations were used as the negative control in the assays. Experiments were done in triplicate.

[2] = tested on: P. aeruginosa IBRS P001; assay: Antimicrobial microdilution assay (MIC/MBC); type: cell-based, Pseudomonas aeruginosa
Procedure: as §1

[3] = tested on: P. aeruginosa MMA83; assay: Antimicrobial microdilution assay (MIC/MBC); type: cell-based, Pseudomonas aeruginosa
Procedure: as §1

[4] = tested on: E. coli IBRS E003; assay: Antimicrobial microdilution assay (MIC/MBC); type: cell-based, Escherichia coli
Procedure: as §1

[5] = tested on: E. coli IMD989; assay: Antimicrobial microdilution assay (MIC/MBC); type: cell-based, Escherichia coli
Procedure: as §1

[6] = tested on: A. baumannii 6077/12; assay: Antimicrobial microdilution assay (MIC/MBC); type: cell-based, Acinetobacter baumannii
Procedure: as §1

[7] = tested on: A. baumannii S2/2; assay: Antimicrobial microdilution assay (MIC/MBC); type: cell-based, Acinetobacter baumannii
Procedure: as §1

[8] = tested on: K. pneumoniae IT977; assay: Antimicrobial microdilution assay (MIC/MBC); type: cell-based, Klebsiella pneumoniae
Procedure: as §1

[9] = tested on: K. pneumoniae Ni9; assay: Antimicrobial microdilution assay (MIC/MBC); type: cell-based, Klebsiella pneumoniae
Procedure: as §1

[10] = tested on: A. xylosoxidans 37F; assay: Antimicrobial microdilution assay (MIC/MBC); type: cell-based, Achromobacter xylosoxidans
Procedure: as §1

[11] = tested on: S. infantis 1371/1; assay: Antimicrobial microdilution assay (MIC/MBC); type: cell-based, Salmonella Infantis
Procedure: as §1

[12] = tested on: P. aeruginosa IBRS P001 biofilm; assay: Crystal violet antibiofilm assay (biofilm formation); type: cell-based, Pseudomonas aeruginosa; details: 24 h
Procedure: After incubation, each well was washed twice with sterile PBS (phosphate-buffered saline, pH 7.4) and fixed with methanol for 10 min. After removal of methanol the plate was air-dried. The biofilm was stained with 0.1% crystal violet (Bio-Merieux, Marcy l’Etoile, France) for 30 min. The plate was washed with water, air dried, and the stain was dissolved with 200 μL of 96% ethanol (Zorka, Sabac, Serbia). The absorbance was read at 620 nm on a Multiskan™ FC microplate photometer (Thermo Scientific™, Waltham, MA, USA). The results are presented as biofilm forming capacity (%) compared to control.

[13] = tested on: HaCaT cells; assay: Cytotoxicity in HaCaT cell line (crystal violet assay); type: cell-based, human; details: HaCaT, 24 h treatment, crystal violet
Procedure: For determination of the polyphenols’ cytotoxic effect, a crystal violet assay was used, with modifications. The cytotoxic effect of polyphenols was analyzed on spontaneously immortalized human skin keratinocytes (HaCaT, AddexBio No. T0020001, San Diego, CA, USA) cell lines. […] Cells (1 × 10^4 cells/well) were seeded in a 96-well plate (Sarstedt, Nümbrecht, Germany) 24 h before treatment. […] Cells were incubated with the compounds for 24 h. […] After crystal violet was removed, the plates were washed in a stream of tap water and left to air-dry at room temperature for 24 h. The absorbance was measured in a microplate reader (Multiskan™ FC Microplate Photometer, Thermo Scientific™) at 590 nm. The results were expressed as IC50 value in μg/mL. The criterion used to categorize the cytotoxic activity polyphenols was as follows: […] All analyses were performed in triplicate; each replicate was also quantified three times. Data were expressed as mean standard deviation, where applicable.

[14] = tested on: eleven antibiotic resistant strains of bacteria; assay: Antimicrobial assay, summary over the examined strains; type: cell-based; details: antibiotic resistant strains of Table 1
Procedure: as §1

[15] = tested on: E. coli CECT434; parameters: method as in PMID 22823343; details: cited from earlier work
[16] = tested on: P. aeruginosa ATCC 10145; parameters: method as in PMID 22823343; details: cited from earlier work
[17] = tested on: S. aureus CECT 976; parameters: method as in PMID 22823343; details: cited from earlier work
[18] = tested on: P. aeruginosa ATCC 10145 biofilms; parameters: method as in PMID 22823343; details: 1000 µg/mL; cited from earlier work

For `COc1cc(/C=C/C(=O)O)ccc1O` [Ferulic acid, ferulic acid], the MIC ([1]; 37 °C, 24 h) was 500 µg/mL (≈ 2.57 mM), the MBC ([1]; subcultivation, 24 h at 37 °C) was 1000 µg/mL (≈ 5.15 mM) and the MIC ([2]; 37 °C, 24 h) was 500 µg/mL (≈ 2.57 mM). For the same compound, the MBC ([2]; subcultivation, 24 h at 37 °C) was 1000 µg/mL (≈ 5.15 mM), the MIC ([3]; 37 °C, 24 h) was 1000 µg/mL (≈ 5.15 mM) and the MBC ([3]; subcultivation, 24 h at 37 °C) was 1000 µg/mL (≈ 5.15 mM). The MIC ([4]; 37 °C, 24 h) was greater than 1000 µg/mL, the MBC ([4]; subcultivation, 24 h at 37 °C) was greater than 1000 µg/mL and the MIC ([5]; 37 °C, 24 h) was 1000 µg/mL (≈ 5.15 mM). The MBC ([5]; subcultivation, 24 h at 37 °C) was 1000 µg/mL (≈ 5.15 mM), the MIC ([6]; 37 °C, 24 h) was 500 µg/mL (≈ 2.57 mM) and the MBC ([6]; subcultivation, 24 h at 37 °C) was 500 µg/mL (≈ 2.57 mM). For the same compound, the MIC ([7]; 37 °C, 24 h) was 500 µg/mL (≈ 2.57 mM), the MBC ([7]; subcultivation, 24 h at 37 °C) was 500 µg/mL (≈ 2.57 mM) and the MIC ([8]; 37 °C, 24 h) was 1000 µg/mL (≈ 5.15 mM). The MBC ([8]; subcultivation, 24 h at 37 °C) was 1000 µg/mL (≈ 5.15 mM), the MIC ([9]; 37 °C, 24 h) was 1000 µg/mL (≈ 5.15 mM) and the MBC ([9]; subcultivation, 24 h at 37 °C) was 1000 µg/mL (≈ 5.15 mM). It also gave an MIC ([10]; 37 °C, 24 h) of 1000 µg/mL (≈ 5.15 mM), an MBC ([10]; subcultivation, 24 h at 37 °C) of 1000 µg/mL (≈ 5.15 mM) and an MIC ([11]; 37 °C, 24 h) of 1000 µg/mL (≈ 5.15 mM). The MBC ([11]; subcultivation, 24 h at 37 °C) was 1000 µg/mL (≈ 5.15 mM), the biofilm inhibition ([12]; 500 µg/mL (MIC)) was “even higher inhibition” and the “reduction of biofilm formation (biomass), in words” value ([12]; MIC and sub-MIC, crystal violet, Figure 1) was “significant (****, p < 0.0001) reduction”. For the same compound, the “IC50 (compound concentration that inhibited 50% of the cell growth)” value [13] was greater than 1000 µg/mL, the “lowest MIC among the examined strains” value [14] was 500 µg/mL and the MIC [15] was 100 µg/mL (≈ 0.515 mM). For the same compound, the MIC [16] was 100 µg/mL (≈ 0.515 mM), the MIC [17] was 1100 µg/mL (≈ 5.66 mM) and the reduction of biofilms [18] was “more than 70%”.
